This note sets out measurements from US10071133B2, “Method for destroying exosomes, kit for destroying exosomes, and method for isolating exosomes derived from normal cells” (priority 2015, dated 2018).

Experiment [1] deals with exosome fraction A prepared from the cell line MM231-luc-D3H2LN derived from human breast cancer cells. Kind of experiment: Destruction of exosomes in PBS, number of exosomes by nanoparticle analyzer (NanoSight LM10). Format: biochemical. The note with it: 100 μM peptide, 1.36×10^10 particles/mL exosomes in PBS, 25° C., 24 hours; without peptide 1.36×10^10. The text has this: Storage samples were lightly suspended with a vortex mixer (vibration mixer) before use.

For experiment [2], the system named is exosomes derived from human breast cancer cells (MM231-luc-D3H2LN) in human peripheral blood sample. The conditions noted are these: […]10^10 particles/mL exosomes, 100 μM magainin 2 or 8% phenol, 25° C., 24 hours. As for the experimental part: The exosome fraction A prepared from the cell line MM231-luc-D3H2LN derived from human breast cancer cells was added to a peripheral blood sample collected from a healthy person with no cancer (hereinafter will be also referred to as human peripheral blood sample) so as to become an exosome concentration of an actual cancer patient, and thereby an artificial sample of a human peripheral blood of the cancer patient was produced. The human peripheral blood sample was obtained after procurement of the patient informed consent according to the Declaration of Helsinki, similarly to the method described in Japanese Unexamined patent publication No. 2013-198483, for example. Blood was drawn using a blood collection tube containing an anticoagulant.
Using a part of the incubated solution, the exosomes were purified with Exo-Flow32 CD9 IP Kit (manufactured by SBI), and then the number of exosomes in the solution was measured using the nanoparticle analyzer (NanoSight LM10; manufactured by NanoSight, Ltd.). […] In addition, a part of the incubated solution was subjected to the serum component protein electrophoresis.

Experiment [3] deals with exosome fraction B derived from human breast cancer cells (MDA-MB-231-luc-D3H2LN). The experiment in a line: Extraction of microRNA (miR-21) from exosomes derived from human breast cancer cells, real-time PCR. Type of experiment: biochemical. The conditions noted are these: 100 μM peptide, 1×10^11 particles/mL exosomes, 0.4 U/μL RNase inhibitor, 37° C., 24 hours; without peptide 8×10^−14M. The protocol: A cell suspension of cell line MDA-MB-231-luc-D3H2LN derived from human breast cancer (=MM231-luc-D3H2LN, provided by the National Cancer Center Research Institute) was seeded in a dish containing RPMI 1640 medium (manufactured by Thermo Fisher Scientific Inc.) containing 10% fetal bovine serum. Subsequently, the cell line was grown at 37° C. under the condition that CO2 concentration was set to 5 volume % using a CO2 incubator, and then the medium was replaced with Advanced RPMI 1640 medium (manufactured by Thermo Fisher Scientific Inc.), followed by culturing for 48 hours, and therefore the culture solution containing exosomes was obtained. This culture solution was centrifuged at 2,000 G for 10 minutes to remove the precipitate, followed by centrifugation at 110,000 G for 70 minutes to precipitate the exosomes, and therefore an exosome fraction B was recovered. The recovered exosome fraction B was suspended in a phosphate buffered saline (PBS) and then stored at 4° C. Storage samples were lightly suspended with a vortex mixer (vibration mixer) before use.
MicroRNA (miR-21 or miR-16) in the reaction solution was subjected to reverse transcription PCR using reverse transcription primers (manufactured by Thermo Fisher Scientific Inc., Taqman microRNA Assays, RT primers, and hsa-mir-21 or hsa-mir-16) and a reverse transcriptase (manufactured by Thermo Fisher Scientific Inc., Taqman microRNA RT kit).
The reverse transcription PCR solution obtained by the above described method was processed and by comparing the number of cycles on a calibration curve of microRNA using Taqman Assay primer (manufactured by Thermo Fisher Scientific Inc., Taqman microRNA Assays, Taqman Assay primer, and hsa-mir-21 or hsa-mir-16) and Real-Time PCR Master Mixes (manufactured by Thermo Fisher Scientific Inc., TaqMan Universal PCR Master Mix II, w/UNG) with StepOnePlus Real-Time PCR System, MiR-21 or miR-16 was quantified. The calibration curve of microRNA was created using synthetic miR-21 (manufactured by Sigma-Aldrich Co. LLC.) or synthetic miR-16 (manufactured by Sigma-Aldrich Co. LLC.).
10 μL of the exosome fraction was prepared such that PBS contains 1×10^11 particles/mL of the exosome fraction B derived from human breast cancer cells, various antimicrobial peptides shown in the following Table 2 adjusted to 100 μM, and 0.4 U/μL of RNase inhibitor (manufactured by Toyobo Co., Ltd.), followed by incubation by being left to stand at 37° C. for 24 hours.
MicroRNA eluted into the solution was purified and recovered from the incubated solution of Example 10 above and Comparative Example 6 above by the following method.
First, 160 μL of PBS was added to the reaction solution, and then the solution was added to a centrifugal filter (manufactured by Millipore Corporation, Amicon Ultra 0.5 mL, 100K filter) and centrifuged at 14,000 G for 2 minutes. Subsequently, 100 μL of the centrifuged filtrate was recovered and introduced into a 1.5 mL tube. Next, 350 μL of RLT buffer (manufactured by QIAGEN, attached with RNeasy mini kit) and 675 μL of ethanol were added and mixed in the 1.5 mL tube. The obtained mixture was separated into two parts, and each of the separates was added onto a spin column (manufactured by QIAGEN, attached with RNeasy mini kit) followed by centrifugation at 8,000 G for 15 seconds, and the entire amount of the mixture was passed through the spin column. Thereafter, 500 μL of RPE buffer (manufactured by QIAGEN, attached with RNeasy mini kit) was added thereto and centrifuged at 8,000 G for 15 seconds. Furthermore, 500 μL of the RPE buffer was added to the spin column once more and centrifuged at 8,000 G for 15 seconds. Thereafter, the spin column was centrifuged at 14,000 G for 1 minute to remove the residual RPE buffer. Next, 30 μL of RNase free water (manufactured by QIAGEN, attached with RNeasy mini kit) was added to the spin column, left for 1 minute, and then centrifuged at 14,000 G for 1 minute, and the eluate obtained thereby was recovered. […]
(Quantitative PCR measures a nucleic acid by following its amplification.)

In the case of Magainin 2, the “number of exosomes in the solution” value in experiment [1] is given as 1.89×10^9 particles/mL. In addition, in experiment [2], the “exosome amount compared to Comparative Example 3 (no additive)” value is on record as “decreased”. In addition, in experiment [3], the “Destructive activity (concentration of microRNA miR-21 in eluate)” value is recorded as “A (the concentration of microRNA is 50×10^−14M or more)”.
